7 compounds from ChEMBL document CHEMBL3860033, “Recent advances of cytotoxic chalconoids targeting tubulin polymerization: Synthesis and biological activity” (Eur J Med Chem, 2016) can be followed below.

Assay [1] is described as follows: Cytotoxicity against human SW620 cells assessed as decrease in cell viability after 24 to 48 hrs by CCK8 assay. The assay is classed as functional, cell-based. The following applies: SW-620. On the technique in general: Tetrazolium assays rely on reduction of a dye to a coloured formazan, in cell work by metabolically active cells.
The nature of assay [2]: Cytotoxicity against human A549 cells assessed as decrease in cell viability after 72 hrs by MTT assay. The assay is classed as functional, cell-based. The following applies: A549, 72 h.
Assay [3] is described as follows: Cytotoxicity against human HCT116 cells assessed as decrease in cell viability after 72 hrs by MTT assay. The following applies: HCT-116, 72 h. The assay is classed as functional, cell-based.
Assay [4] is described as follows: Cytotoxicity against human HeLa cells assessed as decrease in cell viability after 72 hrs by MTT assay. The assay is classed as functional, cell-based.
Assay [5] is described as follows: Inhibition of porcine brain tubulin polymerization by spectrophotometric method. More on the design: species or system Sus scrofa.
Assay [6] is described as follows: Displacement of [3H]-colchicine from porcine tubulin. More on the design: species or system Sus scrofa. In general terms: In a radioligand displacement assay an active substance lowers the binding of a labelled ligand.
The nature of assay [7]: Cytotoxicity against human NCI60 cells after 48 hrs by SRB assay. In kind it is functional. The following applies: NCI60, 48 h. On the technique in general: The SRB assay estimates cell density from bound dye.
The species entered for assay [8] is Ovis aries. Briefly: Binding affinity to lamb brain tubulin using ultracentrifuge by absorbance assay.
Assay [9] is described as follows: Cytotoxicity against human K562 cells assessed as growth inhibition after 5 days by MTT assay. The following applies: K562, 120 h. The assay is classed as functional, cell-based.
A short description of assay [10]: Cytotoxicity against human Capan1 cells assessed as decrease in cell viability after 24 to 48 hrs by CCK8 assay. The assay is classed as functional, cell-based. The following applies: CAPAN-1.

In general, IC50 refers to the point on the concentration scale where inhibition reaches its midpoint. `COc1cc(OC)c(/C=C/C(=O)c2c(O)ccc3ccccc23)c(OC)c1`: the IC50 in [1] was found to be 14.5 µM.
On to `CCOc1cc2c(cc1C(=O)/C=C/c1ccc(OC)c(O)c1)OCS2`, for which the IC50 in [2], in assay [3] and in assay [4] was 0.001 to 0.009 µM in each case.
As to `COc1ccc(/C=C2\Oc3c(cc(OC)c(OC)c3OC)C2=O)cc1O`, the 50% inhibitory concentration (IC50) is 22 µM in assay [5] and 60 µM in assay [6].
What is called GI50 is the concentration at which growth is held to half of that of the control. Low values mean more potent growth inhibition, high ones less potent growth inhibition. Turning to `COc1cc(C(=O)C2OC2c2cc(OC)c(OC)c(OC)c2)cc(OC)c1OC` (stereo not given), growth in assay [7] was halved (GI50) at 14.1 µM.
Take `COc1cc(OC)c(C(=O)/C=C/c2cn(C)c3ccccc23)c(OC)c1`: in assay [8], the Kapp stood at 2 ×10⁵ /M.
Take `COc1ccc(C=C(C)C(=O)c2cc(OC)c(OC)c(OC)c2)cc1O`: in [9], the half-maximal inhibitory concentration (IC50) amounted to 0.0002 µM.
Consider `COc1ccc(C(=O)/C=C/c2cccc3ccccc23)c(O)c1`, for which the IC50 in [10] was found to be 5.2 µM.
